Test [1] addresses T1, IRAK4 (Homo sapiens (Human), UniProt Q9NWZ3). Put plainly: IRAK4 Degradation HiBiT Assay. The note with it: HiBiT-tagged Jurkat cells, 4 hrs; for Dmax: Jurkat; for DC50: read-out: Cellular IRAK4 HiBiT: DC50. For orientation: The HiBiT peptide binds its large partner to form an active luciferase.
Target sequence in this assay (Q9NWZ3 whole entry): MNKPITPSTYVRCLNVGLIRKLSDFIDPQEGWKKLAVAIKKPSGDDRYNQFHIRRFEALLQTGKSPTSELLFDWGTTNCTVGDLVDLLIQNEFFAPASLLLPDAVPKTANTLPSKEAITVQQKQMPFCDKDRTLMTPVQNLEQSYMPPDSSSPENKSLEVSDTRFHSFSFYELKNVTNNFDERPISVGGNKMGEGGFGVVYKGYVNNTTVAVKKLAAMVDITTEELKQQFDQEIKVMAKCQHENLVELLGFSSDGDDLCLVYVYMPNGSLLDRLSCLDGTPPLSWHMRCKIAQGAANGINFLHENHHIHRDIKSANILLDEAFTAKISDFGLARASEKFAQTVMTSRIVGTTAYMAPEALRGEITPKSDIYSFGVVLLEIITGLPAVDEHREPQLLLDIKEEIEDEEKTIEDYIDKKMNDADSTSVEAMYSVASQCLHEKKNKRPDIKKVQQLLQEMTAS
Method: Compound dilution series (11-point, 3.16-fold dilutions in DMSO, columns 1-11 and 12-22) at 500× the final required concentrations were prepared in Labcyte LDV 384-well plates (cat. no. LP-0200) using a Labcyte Echo 550 Liquid Handler. The 500× solutions ranged from 5 mM to 0.5 μM (final assay concentration range 10 μM to 0.1 nM). Using the Echo, the 500× solutions were stamped into white, 384-well assay plates (Corning, cat. no. 3570) at 60 nL/well. […] C-terminal HiBiT-tagged Jurkat cells (polyclonal cell line or clone 8D5) were plated at 1×10^6 cells/mL, 30 μL/well (3×10^4 cells/well) in complete RPMI (10% FBS, 1% L-glutamine). Cells were incubated for 4 hrs at 32° C./6% CO2.
Following incubation, 30 uL of complete Nano-Glo HiBiT Lytic Detection Reagent (Nano-Glo HiBiT Lytic Buffer with 1:50 Nano-Glo HiBiT Lytic Substrate and 1:100 LgBiT Protein; Promega cat. no. N3040) was added. Cells were further incubated for 10 min at room temperature (RT). Luminescence units (LU) were read on an EnVision plate reader (Perkin Elmer, 0.1 sec per well). Percent IRAK4 remaining per sample was calculated as follows:
Using Graphpad Prism, % IRAK4 remaining values were plotted as a function of compound concentration.
The target of test [2] is T1, IRAK4. In words: IRAK4 Biochemical HTRF Kinase Assay. The note with it: read-out: IRAK4 HTRF biochemical: IC50. The gist of the method: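 IC50 values derive from non-linear regression of sixteen concentrations in duplicate. Kinase reaction ran 90 min at ambient temperature after adding 5 μM STK-S1 substrate, 10 mM ATP and 10 mM MgCl2 (reaction-solution levels, pre-dilution to 10 μl); phospho-peptide detected by HTRF after 60 min.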
Target sequence in this assay (Q9NWZ3 whole entry, species assumed): as the sequence (Q9NWZ3 whole entry) above
Background: In TR-FRET formats the signal depends on donor and acceptor labels being close together.

Setting [3] is: read-out: Cellular IRAK4 HiBiT: Dmax, Table 4.
Where [4] appears, read: read-out: Cellular IRAK4 HiBiT: Dmax, Table 5, multiple runs.

Where two headings read alike, the source gives them in different places.

Consider 10 compounds from patent publication US12528814B2, “Bifunctional degraders of interleukin-1 receptor-associated kinases and therapeutic use thereof” (NURIX THERAPEUTICS, INC., priority 2020, dated 2026).

By Dmax is commonly meant the greatest extent of degradation seen. For orientation: DC50 means the concentration giving 50% degradation. As a reminder, the IC50 is the concentration that inhibits the measured activity by half.

With `Cc1ncsc1-c1ccc([C@H](C)NC(=O)[C@@H]2C[C@@H](O)CN2C(=O)[C@@H](NC(=O)CCOCCOCCOCCOCCOCCC(=O)N2CCN(c3nnc(-c4cnc(-c5ccc6cc(C#N)cnn56)cc4NC(C)C)s3)CC2)C(C)(C)C)cc1` [Example 41, (2S,4R)-1-((S)-2-(tert-butyl)-22-(4-(5-(6-(3-cyanopyrrolo[1,2-b]pyridazin-7-yl)-4-(isopropylamino)pyridin-3-yl)-1,3,4-thiadiazol-2-yl)piperazin-1-yl)-4,22-dioxo-7,10,13,16,19-pentaoxa-3-azadocosanoyl)-4-hydroxy-N—((S)-1-(4-(4-methylthiazol-5-yl)phenyl)ethyl)pyrrolidine-2-carboxamide], the values for the Dmax in test [1] (setting [3]) and in test [1] (setting [4]) were 44% and 47%, respectively. The half-maximal degradation concentration (DC50) was determined as 872 nM in test [1] (Table 4) and 1330 nM in test [1] (Table 5, multiple runs). Further, the IC50 in test [2] (Table 4) is 1.3 nM; in test [2] (Table 5, multiple runs), 1.3 nM.
Consider `Cc1ncsc1-c1ccc(CNC(=O)[C@@H]2C[C@@H](O)CN2C(=O)[C@@H](NC(=O)C2(F)CC2)C(C)(C)C)c(OCCCCCC(=O)N2CCN(c3nnc(-c4cnc(-c5ccc6cc(C#N)cnn56)cc4NC(C)C)s3)CC2)c1` [Example 42, (2S,4R)—N-(2-((6-(4-(5-(6-(3-cyanopyrrolo[1,2-b]pyridazin-7-yl)-4-(isopropylamino)pyridin-3-yl)-1,3,4-thiadiazol-2-yl)piperazin-1-yl)-6-oxohexyl)oxy)-4-(4-methylthiazol-5-yl)benzyl)-1-((S)-2-(1-fluorocyclopropane-1-carboxamido)-3,3-dimethylbutanoyl)-4-hydroxypyrrolidine-2-carboxamide], for which the Dmax in test [1] (setting [3]) and in test [1] (setting [4]) was 104% in each case. For the same compound, the DC50 was 336 nM in test [1] (Table 4) and 315 nM in test [1] (Table 5, multiple runs). Moreover, the IC50 turned out to be 17.3 nM in test [2] (Table 4) and 17.3 nM in test [2] (Table 5, multiple runs).
Consider `Cc1ncsc1-c1ccc(CNC(=O)[C@@H]2C[C@@H](O)CN2C(=O)[C@@H](NC(=O)C2(F)CC2)C(C)(C)C)c(OCCCCCCCC(=O)N2CCN(c3nnc(-c4cnc(-c5ccc6cc(C#N)cnn56)cc4NC(C)C)s3)CC2)c1` [Example 43, (2S,4R)—N-(2-((8-(4-(5-(6-(3-cyanopyrrolo[1,2-b]pyridazin-7-yl)-4-(isopropylamino)pyridin-3-yl)-1,3,4-thiadiazol-2-yl)piperazin-1-yl)-8-oxooctyl)oxy)-4-(4-methylthiazol-5-yl)benzyl)-1-((S)-2-(1-fluorocyclopropane-1-carboxamido)-3,3-dimethylbutanoyl)-4-hydroxypyrrolidine-2-carboxamide], for which the Dmax in test [1] (setting [3]) came out at 78%; in test [1] (setting [4]), 67%. The half-maximal degradation concentration (DC50) is 1170 nM in test [1] (Table 4) and 1090 nM in test [1] (Table 5, multiple runs). Moreover, the 50% inhibitory concentration (IC50) in test [2] (Table 4) was determined as 24.1 nM; in test [2] (Table 5, multiple runs) it was 24 nM.
As for `Cc1ncsc1-c1ccc(CNC(=O)[C@@H]2C[C@@H](O)CN2C(=O)[C@@H](NC(=O)C2(F)CC2)C(C)(C)C)c(OCCCCCCCCCC(=O)N2CCN(c3nnc(-c4cnc(-c5ccc6cc(C#N)cnn56)cc4NC(C)C)s3)CC2)c1` [Example 44, (2S,4R)—N-(2-((10-(4-(5-(6-(3-cyanopyrrolo[1,2-b]pyridazin-7-yl)-4-(isopropylamino)pyridin-3-yl)-1,3,4-thiadiazol-2-yl)piperazin-1-yl)-10-oxodecyl)oxy)-4-(4-methylthiazol-5-yl)benzyl)-1-((S)-2-(1-fluorocyclopropane-1-carboxamido)-3,3-dimethylbutanoyl)-4-hydroxypyrrolidine-2-carboxamide], the Dmax in test [1] (setting [3]) turned out to be 33%. The DC50 is over 10000 nM in test [1] (Table 4) and over 9980 nM in test [1] (Table 5, multiple runs). In addition, the IC50 in test [2] (Table 4) was determined as 702 nM; in test [2] (Table 5, multiple runs) it was 702 nM.
In the case of `Cc1ncsc1-c1ccc(CNC(=O)[C@@H]2C[C@@H](O)CN2C(=O)C(NC(=O)[C@H]2CC[C@H](C(=O)N3CCN(c4nnc(-c5cnc(-c6ccc7cc(C#N)cnn67)cc5NC(C)C)s4)CC3)CC2)C(C)(C)C)cc1` (stereo partly drawn) [Example 45, (2S,4R)-1-((S)-2-((1r,4S)-4-(4-(5-(6-(3-cyanopyrrolo[1,2-b]pyridazin-7-yl)-4-(isopropylamino)pyridin-3-yl)-1,3,4-thiadiazol-2-yl)piperazine-1-carbonyl)cyclohexane-1-carboxamido)-3,3-dimethylbutanoyl)-4-hydroxy-N-(4-(4-methylthiazol-5-yl)benzyl)pyrrolidine-2-carboxamide], the Dmax in test [1] (setting [3]) came out at 67%; in test [1] (setting [4]), 83%. The DC50 in test [1] (Table 4) turned out to be 4330 nM; in test [1] (Table 5, multiple runs), 2490 nM. For the same compound, the IC50 was determined as 19 nM in test [2] (Table 4) and 19 nM in test [2] (Table 5, multiple runs).
As to `Cc1ncsc1-c1ccc(CNC(=O)[C@@H]2C[C@@H](O)CN2C(=O)C(NC(=O)[C@H]2CC[C@H](CN3CCN(c4nnc(-c5cnc(-c6ccc7cc(C#N)cnn67)cc5NC(C)C)s4)CC3)CC2)C(C)(C)C)cc1` (stereo partly drawn) [Example 46, (2S,4R)-1-((S)-2-((1r,4S)-4-((4-(5-(6-(3-cyanopyrrolo[1,2-b]pyridazin-7-yl)-4-(isopropylamino)pyridin-3-yl)-1,3,4-thiadiazol-2-yl)piperazin-1-yl)methyl)cyclohexane-1-carboxamido)-3,3-dimethylbutanoyl)-4-hydroxy-N-(4-(4-methylthiazol-5-yl)benzyl)pyrrolidine-2-carboxamide], the figures for the Dmax in test [1] (setting [3]) and in test [1] (setting [4]) were 78% and 73%, respectively. In addition, the DC50 is 1570 nM in test [1] (Table 4) and 1240 nM in test [1] (Table 5, multiple runs). For the same compound, the IC50 in test [2] (Table 4) amounted to 15.4 nM; in test [2] (Table 5, multiple runs), 15.4 nM.
Regarding `Cc1ncsc1-c1ccc(CNC(=O)[C@@H]2C[C@@H](O)CN2C(=O)[C@@H](NC(=O)C2(F)CC2)C(C)(C)C)c(OCCOCCOCCOCCOCCOCCC(=O)N2CCN(c3nnc(-c4cnc(-c5ccc6cc(C#N)cnn56)cc4NC(C)C)s3)CC2)c1` [Example 48, (2S,4R)—N-(2-((18-(4-(5-(6-(3-cyanopyrrolo[1,2-b]pyridazin-7-yl)-4-(isopropylamino)pyridin-3-yl)-1,3,4-thiadiazol-2-yl)piperazin-1-yl)-18-oxo-3,6,9,12,15-pentaoxaoctadecyl)oxy)-4-(4-methylthiazol-5-yl)benzyl)-1-((S)-2-(1-fluorocyclopropane-1-carboxamido)-3,3-dimethylbutanoyl)-4-hydroxypyrrolidine-2-carboxamide], the Dmax in test [1] (setting [3]) and in test [1] (setting [4]) was 119% throughout. The DC50 in test [1] (Table 4) worked out at 691 nM; in test [1] (Table 5, multiple runs) it was 691 nM. Moreover, the half-maximal inhibitory concentration (IC50) is 4 nM in test [2] (Table 4) and 4 nM in test [2] (Table 5, multiple runs).
As to `Cc1ncsc1-c1ccc(CNC(=O)[C@@H]2C[C@@H](O)CN2C(=O)[C@@H](NC(=O)C2(F)CC2)C(C)(C)C)c(OCCOCCOCCOCCC(=O)N2CCN(c3nnc(-c4cnc(-c5ccc6cc(C#N)cnn56)cc4NC(C)C)s3)CC2)c1` [Example 49, (2S,4R)—N-(2-(2-(2-(2-(3-(4-(5-(6-(3-cyanopyrrolo[1,2-b]pyridazin-7-yl)-4-(isopropylamino)pyridin-3-yl)-1,3,4-thiadiazol-2-yl)piperazin-1-yl)-3-oxopropoxy)ethoxy)ethoxy)ethoxy)-4-(4-methylthiazol-5-yl)benzyl)-1-((S)-2-(1-fluorocyclopropane-1-carboxamido)-3,3-dimethylbutanoyl)-4-hydroxypyrrolidine-2-carboxamide], the Dmax in test [1] (setting [3]) and in test [1] (setting [4]) was 111% each time. For the same compound, the 50% degradation concentration (DC50) was determined as 231 nM in test [1] (Table 4) and 231 nM in test [1] (Table 5, multiple runs). In addition, the IC50 is 4.6 nM in test [2] (Table 4) and 4.6 nM in test [2] (Table 5, multiple runs).
As for `CN[C@@H](C)C(=O)N[C@H](C(=O)N1CCC[C@H]1c1nc(C(=O)c2cccc(OCCOCCC(=O)N3CCN(c4nnc(-c5cnc(-c6ccc7cc(C#N)cnn67)cc5NC(C)C)s4)CC3)c2)cs1)C1CCCCC1` [Example 50, (S)—N—((S)-2-((S)-2-(4-(3-(2-(3-(4-(5-(6-(3-cyanopyrrolo[1,2-b]pyridazin-7-yl)-4-(isopropylamino)pyridin-3-yl)-1,3,4-thiadiazol-2-yl)piperazin-1-yl)-3-oxopropoxy)ethoxy)benzoyl)thiazol-2-yl)pyrrolidin-1-yl)-1-cyclohexyl-2-oxoethyl)-2-(methylamino)propanamide], the Dmax in test [1] (setting [3]) and in test [1] (setting [4]) was 67% in each case. For the same compound, the DC50 was 197 nM in test [1] (Table 4) and 197 nM in test [1] (Table 5, multiple runs). Besides, the IC50 in test [2] (Table 4) worked out at 3.1 nM; in test [2] (Table 5, multiple runs), 3.2 nM.
Turning to `CN[C@@H](C)C(=O)N[C@H](C(=O)N1C[C@@H](NC(=O)CCCCC(=O)N2CCN(c3nnc(-c4cnc(-c5ccc6cc(C#N)cnn56)cc4NC(C)C)s3)CC2)C[C@H]1C(=O)N[C@@H]1CCCc2ccccc21)C1CCCCC1` [Example 51, (2S,4S)-4-(6-(4-(5-(6-(3-cyanopyrrolo[1,2-b]pyridazin-7-yl)-4-(isopropylamino)pyridin-3-yl)-1,3,4-thiadiazol-2-yl)piperazin-1-yl)-6-oxohexanamido)-1-((S)-2-cyclohexyl-2-((S)-2-(methylamino)propanamido)acetyl)-N—((R)-1,2,3,4-tetrahydronaphthalen-1-yl)pyrrolidine-2-carboxamide], the Dmax in test [1] (setting [3]) is 48%; in test [1] (setting [4]), 47%. The DC50 in test [1] (Table 4) is 638 nM; in test [1] (Table 5, multiple runs), 502 nM. Further, the IC50 in test [2] (Table 4) turned out to be 2 nM; in test [2] (Table 5, multiple runs), 2 nM.
